Laboratory results from PMC5840262, “Design, Synthesis and Evaluation of Branched RRWQWR-Based Peptides as Antibacterial Agents Against Clinically Relevant Gram-Positive and Gram-Negative Pathogens” (Frontiers in Microbiology, 2018).
Values after ≈ are worked out from the molar mass of the structure shown. Values joined by “and” are separate entries in the source; they are usually repeats but may differ in a detail not shown here. Equal values may be shown once. Bridge positions count the residues as written; N and C are the ends. Square brackets hold non-standard residues; d marks the D form. Ends that are not written are not given here. Peptide text beside a SMILES is read from it. I, II: the chains in the order shown. Ahx = NCCCCCC(=O)O

Legend:
human erythrocytes = experiment: Hemolytic activity; type: cell-based
Procedure: Human erythrocytes collected from the blood samples of healthy humans were harvested by centrifugation for 7 min at 162 × g and washed three times in phosphate-buffered saline (PBS). The erythrocytes (2% hematocrit in PBS) were incubated with peptide molecules at several concentrations (6.25, 12.5, 25, 50, and 100 μM) for 2 h at 37°C. PBS was used as negative control for hemolysis, and sterile distilled water was used as positive control (100% hemolysis). The plate was subsequently centrifuged at 1,459 × g for 10 min at 4°C. Aliquots of the supernatant from each well (75 μL) were carefully transferred to a new sterile 96-well plate, and hemolytic activity was evaluated by measuring the OD492 using an Asys Expert Plus Microplate reader. The experiments were performed in duplicate, and hemolytic activity was calculated for each peptide.

[1] = system: Staphylococcus aureus ATCC 25923 (sensitive); conditions: S. aureus ATCC 25923, sensitive strain; MIC50 previously obtained with the same assay (M7-A7); ref Leon-Calvijo et al., 2015; cited from earlier work
Description: Table 6 Therapeutic Index values for the RRWQWR-based peptides against the ATCC strains of HCAI-relevant bacteria. | column: Gram positive / MIC (μM) / ^d25923-^cS

[2] = system: Klebsiella pneumonia ATCC 13883 (sensitive); conditions: K. pneumoniae ATCC 13883, sensitive strain; MIC50 previously obtained with the same assay (M7-A7); ref Leon-Calvijo et al., 2015; cited from earlier work
Description: Table 6 Therapeutic Index values for the RRWQWR-based peptides against the ATCC strains of HCAI-relevant bacteria. | column: Gram negative / MIC (μM) / ^k13883-^cS

[3] = system: Staphylococcus aureus ATCC 33591 (resistant); conditions: S. aureus ATCC 33591, resistant strain; MIC50 previously obtained with the same assay (M7-A7); ref Leon-Calvijo et al., 2015; cited from earlier work
Description: Table 6 Therapeutic Index values for the RRWQWR-based peptides against the ATCC strains of HCAI-relevant bacteria. | column: Gram positive / MIC (μM) / ^e33591-^fR

[4] = system: Gram-positive ATCC strains (E. faecalis 29212, S. aureus 25923 and 33591); experiment: Therapeutic index, Gram-positive ATCC strains; conditions: for Fold (GM peptide / GM tetrameric peptide): Gram-positive ATCC strains; for Gm, geometric mean of MIC50 values: Gram-positive ATCC strains 29212, 25923, 33591
Description: We determined the therapeutic index of each peptide, which we defined as the ratio of Maximum Hemolytic Activity (Hmax) to MIC50 (Hmax/MIC50).
The therapeutic index (TI) is a ratio of the toxic dose of a substance to its therapeutically-active dose and can be calculated different ways (e.g., LD50/ED50). Here, we calculated a TI value for each peptide against all the Gram-positive or the Gram-negative ATCC strains, by dividing its Hmax by its MIC50 for the given group of strains. […] Additionally, to make our quantitative analysis more robust [geometric mean (Khachatryan et al., [2017]) and fold values], we have included MIC50 values for these peptides against S. aureus and K. pneumoniae that we previously obtained using the same assay, the M7-A7 method of the National Committee for Clinical Laboratory Standards (Leon-Calvijo et al., [2015]).

[5] = system: P. aeruginosa ATCC-10145 (sensitive); experiment: Scanning electron microscopy of treated bacteria; type: cell-based, Pseudomonas aeruginosa; conditions: 3 × MIC50, 2 h, 37°C
Procedure: (§1) We observed bacterial morphology by SEM. The E. faecalis and P. aeruginosa strains were grown to mid-logarithmic phase, and adjusted spectrophotometrically to a McFarland standard of 0.5 (corresponding to ~1 × 10^8 CFU/mL). Subsequently, 1 mL of bacterial suspension was distributed into three tubes: one tube was treated with (RRWQWR)2KAhx at 3 × the MIC50; another tube, with (RRWQWR)4K2Ahx2C2 at the same concentration; and the third tube was left untreated, as a control. The samples were incubated aerobically at 37°C for 2 h, and the bacterial suspensions were centrifuged at 1,459 × g for 3 min and then, washed twice with Millonig's Phosphate Buffer (0.10 M, pH 7.4). For SEM, each sample was fixed with 1 mL of 2.5% glutaraldehyde at 4°C for 2 h. The fixed samples were dehydrated in an ethanol gradient (50, 70, 80, 90, and 100%) for 20 min and then, centrifuged at 1,459 × g for 10 min. The bacterial pellet was resuspended in 100% ethyl alcohol and air-dried. Finally, the slides were taped onto stubs, coated with gold using a Quorum Q150R sputter coater, and observed with an FEI Quanta 200-r microscope.
(§2) We used SEM to study the morphology of bacterial cells before and after treatment with either branched peptide (dimeric and tetrameric). To this end, each strain of E. faecalis and P. aeruginosa was first studied by SEM; then, independently treated in the exponential phase with either peptide at 3 × the corresponding MIC50 value for 2 h (except for the resistant E. faecalis strain, for which a peptide concentration of 200 μM was used); and finally, studied by SEM again.

[6] = system: P. aeruginosa ATCC-27853 (resistant); experiment: Scanning electron microscopy of treated bacteria; type: cell-based, Pseudomonas aeruginosa; conditions: 3 × MIC50, 2 h, 37°C
Procedure: as §1, §2

[7] = system: E. faecalis ATCC-29212 (sensitive); experiment: Scanning electron microscopy of treated bacteria; type: cell-based, Enterococcus faecalis; conditions: 3 × MIC50, 2 h, 37°C
Procedure: as §1
We used SEM to study the morphology of bacterial cells before and after treatment with either branched peptide (dimeric and tetrameric). […]

[8] = system: Klebsiella pneumoniae ATCC 700603 (resistant); conditions: K. pneumoniae ATCC 700603, resistant strain; MIC50 previously obtained with the same assay (M7-A7); ref Leon-Calvijo et al., 2015; cited from earlier work
Description: Table 6 Therapeutic Index values for the RRWQWR-based peptides against the ATCC strains of HCAI-relevant bacteria. | column: Gram negative / MIC (μM) / ^l700603-^fR

Row | Compound | H50, concentration of peptide leading to 50% hemolysis (human erythrocytes; red cells of human, 2 h) [µM] | Hmax, maximum hemolytic activity (human erythrocytes; human red blood cells, 2% hematocrit in PBS, 2 h 37°C, OD492, peptide 6.25-100 μM, concentration of the maximum in the column beside, duplicate) [%] | H50, concentration of peptide leading to 50% hemolysis (human erythrocytes; human red blood cells, 2 h 37°C, highest concentration tested 100 μM) [µM] | Peptide concentration corresponding to Hmax (human erythrocytes; human red blood cells, 2 h 37°C, used as MHC in the therapeutic index) | MIC [1] [µM] | MIC [2] [µM] | MIC [3] [µM] | Fold (GM peptide / GM tetrameric peptide) [4] | Gm, geometric mean of MIC50 values [4] [µM] | Morphology of bacterial cells by SEM after treatment [5] | Morphology of bacterial cells by SEM after treatment [6] | Morphology of bacterial cells by SEM after treatment [7] | MIC [8] [µM] | Hmax relative to that of the dimer (human erythrocytes) [x]
1 | RWQWRWQWR [PLS] | >100 |  |  |  |  |  |  |  |  |  |  |  |  | 
2 | RRWQWR-NH2 [LfcinB (20–25), reference compound] |  | 7.1 | >100 | 25 µM and 25.0 µM |  |  |  |  |  |  |  |  |  | 
3 | N=C(N)NCCC[C@H](NC(=O)[C@H](Cc1c[nH]c2ccccc12)NC(=O)[C@H](CCC(N)=O)NC(=O)[C@H](Cc1c[nH]c2ccccc12)NC(=O)[C@H](CCCNC(=N)N)NC(=O)[C@@H](N)CCCNC(=N)N)C(=O)NCCCC[C@H](NC(=O)[C@H](CCCNC(=N)N)NC(=O)[C@H](Cc1c[nH]c2ccccc12)NC(=O)[C@H](CCC(N)=O)NC(=O)[C@H](Cc1c[nH]c2ccccc12)NC(=O)[C@H](CCCNC(=N)N)NC(=O)[C@@H](N)CCCNC(=N)N)C(=O)NCCCCCC(N)=O [LfcinB (20–25)2] (I: H-RRWQWRK[Ahx]-NH2 / II: H-RRWQWR; amide I:7-II:C; N-terminus assumed) | >100 |  |  |  | 3.0 (≈ 6.59 µg/mL) | 9.0 (≈ 19.8 µg/mL) | 24.1 (≈ 52.9 µg/mL) | 3.1 | 9.8 | clear reduction in population and caused morphological alterations | marked drop in population and severe morphological alterations | random organization with morphological alterations | 7.3 (≈ 16 µg/mL) | 
4 | (RRWQWR)4K2Ahx2C2 (disulfide) [LfcinB (20–25)4, branched tetrameric peptide (RRWQWR)4K2Ahx2C2, two dimers linked by a cysteine disulfide bridge] |  |  |  |  | 1.7 | 12.0 | 5.9 | 1.0 | 3.1 | very heterogeneous population and to alterations in the cell surface | disintegrated and irregularly-shaped mucoid cells | population decline, cell-size heterogeneity and cell-surface alterations in the form of protrusions | 6.2 | 8
